Test results as given in the NIST ThermoML archive (doi:10.1016/j.tca.2015.07.011).
Where “and” joins values, the source holds several entries; their conditions need not be identical. Equal entries are not always repeated. Numbers after ± are expanded uncertainties.

Legend:
[1] = for mass density: 293 K, 101.33 kPa, Pycnometric method; for vapor or sublimation pressure: Transpiration method
[2] = Molar enthalpy of transition or fusion; settings: DSC

CC(C)COc1ccccc1C(=O)O [2-iso-butoxybenzoic acid]
Settings	mass density [kg/m3]
[1], Liquid	1100 ± 100

[1], Liquid
Settings	vapor or sublimation pressure
343.9 K	0.0008 ± 7e-05 kPa
353.1 K	0.00176 ± 0.00012 kPa
363.2 K	0.0041 ± 0.00027 kPa
365.2 K	0.0048 ± 0.00031 kPa
369.2 K	0.00662 ± 0.00046 kPa
371.2 K	0.00775 ± 0.00056 kPa
371.4 K	0.00817 ± 0.00056 kPa and 0.00791 ± 0.00054 kPa
371.5 K	0.00808 ± 0.00058 kPa
374.2 K	0.01017 ± 0.00068 kPa
374.4 K	0.00999 ± 0.00066 kPa
376.5 K	0.01179 ± 0.00078 kPa
377.3 K	0.01245 ± 0.00084 kPa
378.5 K	0.01391 ± 0.00092 kPa
379.2 K	0.01467 ± 0.00096 kPa
380.1 K	0.01546 ± 0.001 kPa
380.2 K	0.01553 ± 0.001 kPa
382.4 K	0.0177 ± 0.0011 kPa
384.2 K	0.02038 ± 0.0013 kPa
385.8 K	0.02237 ± 0.0014 kPa
388.1 K	0.02622 ± 0.0017 kPa
390.3 K	0.03064 ± 0.002 kPa
393 K	0.03639 ± 0.0023 kPa
395.2 K	0.04478 ± 0.0029 kPa
398.1 K	0.05373 ± 0.0034 kPa

COc1ccccc1C(=O)O [2-methoxybenzoic acid]
[1], Crystal
Settings	vapor or sublimation pressure [kPa]
342.4 K	0.00098 ± 8e-05
346.2 K	0.00152 ± 0.0001
348.2 K	0.00181 ± 0.00012
350.3 K	0.00221 ± 0.00015
352.2 K	0.00272 ± 0.00018
354.3 K	0.00347 ± 0.00023
356.2 K	0.00419 ± 0.00028
358.9 K	0.00536 ± 0.00035
361.4 K	0.0068 ± 0.00048
363.2 K	0.00813 ± 0.00057
366.2 K	0.01064 ± 0.00072
367.9 K	0.01262 ± 0.00085
371.5 K	0.01728 ± 0.0011

CC(C)COc1cccc(C(=O)O)c1 [3-iso-butoxybenzoic acid]
Crystal
Settings	Molar enthalpy of transition or fusion [kcal/mol]	mass density [kg/m3]
[1]	–	1130 ± 200
[2]	6.02 ± 0.167	–

[1]
Settings	Normal melting temperature [°C]	vapor or sublimation pressure [kPa]
354.8 K, Liquid	–	0.00162 ± 0.00012
356.2 K, Liquid	–	0.00181 ± 0.00012
357.4 K, Liquid	–	0.00202 ± 0.00014
359.5 K, Liquid	–	0.00238 ± 0.00015
361.2 K, Liquid	–	0.00281 ± 0.00019
363 K, Liquid	–	0.0032 ± 0.0002
364.2 K, Liquid	–	0.00358 ± 0.00023
365.7 K, Liquid	–	0.00406 ± 0.00027
368.3 K, Liquid	–	0.00493 ± 0.00032
370.9 K, Liquid	–	0.00601 ± 0.00043
372.7 K, Liquid	–	0.00707 ± 0.00049
373.7 K, Liquid	–	0.00763 ± 0.00053
375.3 K, Liquid	–	0.00871 ± 0.00059
378.2 K, Liquid	–	0.01099 ± 0.00074
380.1 K, Liquid	–	0.013 ± 0.00086
382.7 K, Liquid	–	0.01579 ± 0.001
Crystal, DTA	80.4 ± 1.1	–
Crystal, visual observation	80.00 ± 3	–

CCCCOc1ccc(C(=O)O)cc1 [4-butoxybenzoic acid]
[1], Crystal
Settings	vapor or sublimation pressure
377.8 K	0.00164 ± 0.00012 kPa
383.4 K	0.00285 ± 0.0002 kPa
391 K	0.00586 ± 0.00038 kPa
396.2 K	0.00973 ± 0.00066 kPa
399.3 K	0.01214 ± 0.00082 kPa
401.3 K	0.01536 ± 0.001 kPa
406.4 K	0.02366 ± 0.0015 kPa
411.4 K	0.03676 ± 0.0024 kPa
415.4 K	0.04923 ± 0.0032 kPa
417.3 K	0.05826 ± 0.0037 kPa and 0.05838 ± 0.0037 kPa

CC(C)COc1ccc(C(=O)O)cc1 [4-iso-butoxybenzoic acid]
Settings	Molar enthalpy of transition or fusion, Crystal 1 [kcal/mol]	Molar enthalpy of transition or fusion, Crystal 2 [kcal/mol]	Normal melting temperature, Crystal 1, DTA [°C]	Triple point temperature, Crystal 2, DTA [K]	mass density, Crystal [kg/m3]
[1]	–	–	142.2 ± 1.1	412.5 ± 1.1	1130 ± 200
[2]	4.52 ± 0.143	0.669 ± 0.0956	–	–	–

[1]
Settings	Normal melting temperature [°C]	vapor or sublimation pressure
342.3 K, Crystal 2	–	7e-05 ± 2e-05 kPa
343.5 K, Crystal 2	–	8e-05 ± 2e-05 kPa
346.4 K, Crystal 2	–	0.00011 ± 2e-05 kPa
348.5 K, Crystal 2	–	0.00014 ± 2e-05 kPa
349.2 K, Crystal 2	–	0.00015 ± 2e-05 kPa
353.4 K, Crystal 2	–	0.00026 ± 2e-05 kPa
353.6 K, Crystal 2	–	0.00025 ± 2e-05 kPa
356.9 K, Crystal 2	–	0.00038 ± 3e-05 kPa
359.2 K, Crystal 2	–	0.00046 ± 4e-05 kPa
360.4 K, Crystal 2	–	0.00055 ± 5e-05 kPa
361.6 K, Crystal 2	–	0.00066 ± 5e-05 kPa
363.4 K, Crystal 2	–	0.00078 ± 5e-05 kPa
363.5 K, Crystal 2	–	0.00078 ± 5e-05 kPa
365.4 K, Crystal 2	–	0.00096 ± 7e-05 kPa
365.9 K, Crystal 2	–	0.00102 ± 7e-05 kPa
367.8 K, Crystal 2	–	0.00122 ± 9e-05 kPa
368.2 K, Crystal 2	–	0.00119 ± 8e-05 kPa
368.7 K, Crystal 2	–	0.00134 ± 0.0001 kPa
368.9 K, Crystal 2	–	0.0014 ± 0.0001 kPa
370.7 K, Crystal 2	–	0.00162 ± 0.00012 kPa
373.1 K, Crystal 2	–	0.00199 ± 0.00013 kPa
373.3 K, Crystal 2	–	0.00216 ± 0.00015 kPa
378.6 K, Crystal 2	–	0.00342 ± 0.00023 kPa
379.3 K, Crystal 2	–	0.00369 ± 0.00025 kPa
381 K, Crystal 2	–	0.00422 ± 0.00027 kPa
388.5 K, Crystal 2	–	0.0089 ± 0.0006 kPa
390.5 K, Crystal 2	–	0.01034 ± 0.0007 kPa
393.6 K, Crystal 2	–	0.01381 ± 0.00092 kPa and 0.01388 ± 0.00092 kPa
393.7 K, Crystal 2	–	0.0142 ± 0.00094 kPa
393.8 K, Crystal 2	–	0.01384 ± 0.00092 kPa
395.2 K, Crystal 2	–	0.01617 ± 0.0011 kPa
396.9 K, Crystal 2	–	0.01961 ± 0.0013 kPa
397.4 K, Crystal 2	–	0.02032 ± 0.0013 kPa
398.6 K, Crystal 2	–	0.02126 ± 0.0014 kPa
399 K, Crystal 2	–	0.02336 ± 0.0015 kPa
399.9 K, Crystal 2	–	0.02413 ± 0.0016 kPa
402.6 K, Crystal 2	–	0.03218 ± 0.002 kPa
403.2 K, Crystal 2	–	0.03283 ± 0.0021 kPa
Crystal, visual observation	140.00 ± 3	–
